In US10011629B2, “Nucleoside analogs for treatment of the flaviviridae family of viruses and cancer” (Cocrystal Pharma, Inc., priority 2015, dated 2018):
“Also recorded” adds a separate entry of the source. Like-named read-outs stand apart in the source and are kept apart here.

How the values were obtained:
[1] = system: nuclear DNA (ß-actin or rRNA gene) in HepG2 cells; experiment: Nuclear DNA level in HepG2 cells (real-time PCR); assay type: cell-based, human; conditions: Homo sapiens, HepG2, 336 h
Protocol: (§1) This assay was used in all studies described in this application that determine the effect of compounds on mitochondrial DNA content. In this assay, low-passage-number HepG2 cells were seeded at 5,000 cells/well in collagen-coated 96-well plates. Test compounds were added to the medium to obtain final concentrations of 0 μM, 0.1 μM, 10 μM and 100 μM. […] The mitochondrial cytochrome c oxidase subunit II (COXII) gene and the ß-actin or rRNA gene were amplified from 5 μl of the eluted nucleic acids using a multiplex Q-PCR protocol with suitable primers and probes for both target and reference amplifications. […] For exon 3 of the ß-actin gene (GenBank accession number E01094) the sense, probe, and antisense primers are 5′-[…]-3′ (SEQ ID NO. 4), 5′-6-[…]-3′ (SEQ ID NO. 5) and 5′-[…]-3′ (SEQ ID NO. 6), respectively. The primers and probes for the rRNA gene are commercially available from Applied Biosystems. […] The comparative CT method uses arithmetic formulas in which the amount of target (COXII gene) is normalized to the amount of an endogenous reference (the B-actin or rRNA gene) and is relative to a calibrator (a control with no drug at day 7). The arithmetic formula for this approach is given by 2-ΔΔCT, where ΔΔCT is (CT for average target test sample−CT for target control)−(CT for average reference test−CT for reference control) (see Johnson M R, K Wang, J B Smith, M J Heslin, R B Diasio. Quantitation of dihydropyrimidine dehydrogenase expression by real-time reverse transcription polymerase chain reaction. Anal. Biochem. 2000; 278:175-184). A decrease in mitochondrial DNA content in cells grown in the presence of drug indicated mitochondrial toxicity.

HepG2 cells = experiment: Lactic acid production in HepG2 cells; assay type: cell-based, human; conditions: 14-day assay
Protocol: To measure the effects of the compounds on lactic acid production, HepG2 cells from a stock culture were diluted and plated in 12-well culture plates at 2.5×10^4 cells per well. […] […] The culture medium was then filtered, and the lactic acid content in the medium was determined using a colorimetric lactic acid assay (Sigma-Aldrich). Since lactic acid product can be considered a marker for impaired mitochondrial function, elevated levels of lactic acid production detected in cells grown in the presence of test compounds would indicate a drug-induced cytotoxic effect.

Huh-7 cells = experiment: Cellular pharmacology in Huh7 cells (intracellular metabolites)
Protocol: Ice-cold 70% methanol was used as the extraction solvent. ddATP (10 nM) was used as the internal standard.

[2] = system: mitochondrial DNA (COXII gene) in HepG2 cells; experiment: Mitochondrial DNA level in HepG2 cells (real-time PCR)
Protocol: as §1, with “The” for “The comparative CT method uses arithmetic formulas in which the amount of target (COXII gene) is normalized to the amount of an endogenous reference (the B-actin or rRNA gene) and is relative to a calibrator (a control with no drug at day 7). The”

[3] = Cytotoxicity in HCV replicon assay (ΔCt rRNA); assay type: cell-based; conditions: human; replicon cells; CC50; read-out: CC50 or % inhibit cytotoxicity
Protocol: (§2) Huh 7 Clone B cells containing HCV Replicon RNA were seeded in a 96-well plate at 5000 cells/well, and the compounds tested at 10 μM in triplicate immediately after seeding. Following five days incubation (37° C., 5% CO2), total cellular RNA was isolated by using versaGene RNA purification kit from Gentra. Replicon RNA and an internal control (TaqMan rRNA control reagents, Applied Biosystems) were amplified in a single step multiplex Real Time RT-PCR Assay. The antiviral effectiveness of the compounds was calculated by subtracting the threshold RT-PCR cycle of the test compound from the threshold RT-PCR cycle of the no-drug control (ΔCt HCV). A ΔCt of 3.3 equals a 1-log reduction (equal to 90% less starting material) in Replicon RNA levels. The cytotoxicity of the compounds was also calculated by using the ΔCt rRNA values. 2′-C-Me-C was used as the positive control. To determine EC90 and IC50 values^2, ΔCt: values were first converted into fraction of starting material^3 and then were used to calculate the % inhibition.

[4] = system: HCV 1b (Huh 7 Clone B cells containing HCV Replicon RNA); experiment: HCV replicon assay; assay type: cell-based; conditions: Hepatitis C virus
Protocol: as §2, with “inhibition. […]” for “inhibition.”

[5] = Assay for bone marrow cytotoxicity; assay type: cell-based, human; conditions: human; organization LOBP; read-out: Bone marrow toxicity, CC50
Protocol: (§3) Primary human bone marrow mononuclear cells can be obtained commercially from Cambrex Bioscience (Walkersville, Md.). CFU-GM assays is carried out using a bilayer soft agar in the presence of 50 units/mL human recombinant granulocyte/macrophage colony-stimulating factor, while BFU-E assays used a […] matrix containing 1 unit/mL erythropoietin (see Sommadossi J P, Carlisle R. Toxicity of 3′-azido-3′-deoxythymidine and 9-(1,3-dihydroxy-2-propoxymethyl) guanine for normal human hepatopoietic progenitor cells in vitro. Antimicrob. Agents Chemother. 1987; 31: 452-454; Sommadossi, J P, Schinazi, R F, Chu, C K, and Xie, M Y. Comparison of cytotoxicity of the (−) and (+) enantiomer of 2′,3′-dideoxy-3′-thiacytidine in normal human bone marrow progenitor cells. Biochem. Pharmacol. 1992; 44:1921-1925). Each experiment can be performed in duplicate in cells from three different donors. AZT is used as a positive control. […] Statistical analysis can be performed with Student's t test for independent non-paired samples.

[6] = system: Primary human bone marrow mononuclear cells; experiment: Assay for bone marrow cytotoxicity; assay type: cell-based; conditions: organization Stem cell; read-out: Bone marrow toxicity, CC50
Protocol: as §3

[7] = system: cellular rRNA (internal control, measure of cytotoxicity); experiment: Cytotoxicity in HCV replicon assay (ΔCt rRNA); assay type: cell-based; conditions: human
Protocol: as §2

[8] = system: Primary Human Hepatocytes; experiment: Cellular egress from Primary Human Hepatocytes; conditions: sofosbuvir pre-incubated 10 μM 12 h; time 48 hr
Protocol: FIGS. 6a and 6b are charts and tables showing cellular egress of Compound 9 (FIG. 6a) and sofosbuvir (FIG. 6b) from Primary Human Hepatocytes. The results are of freshly plated human hepatocytes ([…]) from a donor, where the cells were plated in 24-well plates. The compounds were pre-incubated at a concentration of 10 μM for 12 h, and cells were harvested at 0, 1, 2, 4, 10, 24 and 48 hours. The results for the monophosphate are shown in grey, for the diphosphate in orange, and for the triphosphate in blue.

[9] = Homo sapiens, HepG2, read-out: % inhibition MitDNA

CC(C)OC(=O)[C@H](C)NP(=O)(OC[C@H]1O[C@@H](n2ccc(=O)[nH]c2=O)C(F)(Br)C1O)Oc1ccccc1 (stereo in doubt) [Compound 9]
inhibition at 10 µM ([1]; read-out: % inhibition nDNA): 5.2% | inhibition at 50 µM ([1]; read-out: % inhibition nDNA): 49.8% | Lactic acid Production (% of control) (HepG2 cells; 10 μM): 89.5 ± 2.0 % of control | Lactic acid Production (% of control) (HepG2 cells; 50 μM): 111 ± 38.5 % of control | intracellular 7-DP (Huh-7 cells; human): 252 ± 14 pmol/10^6 cells | intracellular 7-MP (Huh-7 cells; human): 12.4 ± 1.5 pmol/10^6 cells | intracellular 7-TP (Huh-7 cells; human): 98.2 ± 2.2 pmol/10^6 cells | intracellular 9 (Huh-7 cells; human): 318.4 ± 26.6 pmol/10^6 cells | MitDNA Content (% of control) ([2]; HepG2 cells, 14-day assay, 10 μM, range in parentheses): 187 (169-206) % of control | MitDNA Content (% of control) ([2]; HepG2 cells, 14-day assay, 50 μM, range in parentheses): 64 (45-91) % of control | Summary (mitochondrial toxicity) ([2]; HepG2 cells, 14-day assay, mitochondrial/nuclear DNA and lactic acid): non-toxic up to 10 μM; also recorded: not toxic up to 10 μM | inhibition at 10 µM [2, 9]: < 1% | inhibition at 50 µM [2, 9]: 67.8% | CC50 at 5 days [3]: > 10 µM | EC90 ([4]; Huh-7, read-out: EC90 (μM or letter value) or % inhib HCV): 0.1 to 1 µM | CC50 [5]: > 100 µM | CC50 [6]: > 100 µM

Nc1ccn([C@@H]2O[C@H](CO)[C@@H](O)[C@@]2(F)Br)c(=O)n1 [Compound 15, 2′-Deoxy-2′-bromo-2′-fluoro Cytidine]
inhibition at 5 days, 10 µM [7]: 67.9% | inhibition at 10 µM ([4]; Huh-7, HCV 1b replicon, 10 μM): 99.9%

CC(C)OC(=O)[C@H](C)N[P@](=O)(OC[C@H]1O[C@@H](n2ccc(=O)[nH]c2=O)[C@](C)(F)[C@@H]1O)Oc1ccccc1 [Sofosbuvir, reference compound]
inhibition at 1 µM ([1]; read-out: % inhibition nDNA): -98% | inhibition at 10 µM ([1]; read-out: % inhibition nDNA): -51% | inhibition at 50 µM ([1]; read-out: % inhibition nDNA): 93% | IC50 ([1]; read-out: IC50 nDNA, HepG2 cells, 14-day assay): 38 µM | 2′-F, 2′Me UMP [8]: BLOQ | MI [8]: BLOQ | intracellular SOF (Huh-7 cells; Huh-7 cells, 50 μM, 4 hr): 206.4 ± 3.2 pmol/10^6 cells | intracellular SOF-nuc (Huh-7 cells; Huh-7 cells, 50 μM, 4 hr): BLOQ | Summary (mitochondrial toxicity) [2]: Slightly toxic | inhibition at 1 µM [2, 9]: -12% | inhibition at 10 µM [2, 9]: -18% | inhibition at 50 µM [2, 9]: 87% | IC50 ([2]; Homo sapiens, HepG2, read-out: IC50 MitDNA, HepG2 cells, 14-day assay): 36 µM | MitDNA Content (% of control) ([2]; human, 14 days, 1 μM): 57 (35-93) % of control | MitDNA Content (% of control) ([2]; human, 14 days, 10 μM): 78 (69-89) % of control | MitDNA Content (% of control) ([2]; human, 14 days, 50 μM): 200 (136-278) % of control | EC90 ([4]; Huh-7, HCV 1b replicon, numeric EC90, read-out: EC90 (μM or letter value) or % inhib HCV): 0.8 µM | EC50 ([4]; Huh-7, HCV 1b replicon, numeric, read-out: EC50 (μM or letter value)): 0.2 µM
